Assay [1] addresses T1, Btk (Homo sapiens (Human), UniProt Q06187). Kind of assay: Btk PBMC IC50 Cell Assay (anti-IgM-induced CD69 expression on B cells).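 Further: freshly isolated human PBMCs, IC50 from concentration-response of the share of CD19+ cells expressing CD69 after anti-IgM BCR stimulation.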 The format is cell-based. Conditions: anti-IgM-induced CD69 expression on CD19 positive cells in human PBMCs.
Assay [2] addresses T1, Btk. Kind of assay: Time Dependent Human Whole Blood IC50 Assay. Conditions: read-out: Assay C (IC50). The class given is cell-based.
A further assay deals with full-length human BTK (Homo sapiens (Human), UniProt Q06187). Kind of assay: BTK IC50 Enzyme Assay (microfluidic off-chip mobility shift kinase assay).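 Further: Read-out separates phosphorylated peptide product from substrate by their charge-to-mass difference, with IC50 fitted from log inhibitor concentration against percent enzyme activity.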 Conditions: Btk Enzymatic IC50 Assay, 90 min at 27 C. The class given is biochemical.
Sequence of full-length human BTK (Q06187 whole entry): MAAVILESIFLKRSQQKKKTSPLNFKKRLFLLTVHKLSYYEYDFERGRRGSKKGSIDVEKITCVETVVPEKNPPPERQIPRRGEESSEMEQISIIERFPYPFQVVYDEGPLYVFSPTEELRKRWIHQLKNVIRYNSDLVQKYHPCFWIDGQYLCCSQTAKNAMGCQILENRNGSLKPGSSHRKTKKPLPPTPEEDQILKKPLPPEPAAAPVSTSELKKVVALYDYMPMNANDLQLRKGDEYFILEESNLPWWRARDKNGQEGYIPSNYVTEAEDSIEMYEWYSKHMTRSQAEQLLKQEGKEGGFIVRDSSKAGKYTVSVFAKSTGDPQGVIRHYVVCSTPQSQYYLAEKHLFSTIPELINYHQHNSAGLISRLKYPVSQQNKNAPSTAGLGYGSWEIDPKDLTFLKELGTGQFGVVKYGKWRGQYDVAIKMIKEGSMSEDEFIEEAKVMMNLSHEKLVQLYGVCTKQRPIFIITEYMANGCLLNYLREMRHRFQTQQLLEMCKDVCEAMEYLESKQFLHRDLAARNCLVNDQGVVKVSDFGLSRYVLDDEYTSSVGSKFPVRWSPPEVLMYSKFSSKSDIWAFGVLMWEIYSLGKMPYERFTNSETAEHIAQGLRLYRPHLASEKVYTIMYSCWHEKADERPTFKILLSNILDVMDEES

Some results are limits rather than exact numbers.

T1 sequence (Q06187 whole entry): as above

`Cc1nn(C)c(C)c1-c1nc2c(-c3ccc4c(c3)CCCCC4NC(=O)c3nnc(C(C)(C)C)o3)ccnc2[nH]1` (stereo not drawn) [Compound 116, 5-tert-Butyl-[1,3,4]oxadiazole-2-carboxylic acid {2-[2-(1,3,5-trimethyl-1H-pyrazol-4-yl)-3H-imidazo[4,5-b]pyridin-7-yl]-6,7,8,9-tetrahydro-5H-benzocyclohepten-5-yl}-amide]: the IC50 against Btk [1] lay in the range of 0.001 to 0.01 µM; at Btk [2], 0.01 to 0.1 µM; at full-length human BTK it was 0.001 to 0.01 µM.
In the case of `CC(C)n1cc(-c2nc3nccc(-c4ccc5c(c4)CCCC[C@@H]5NC(=O)c4nc(C(C)(C)C)no4)c3[nH]2)cn1` [Compound 81, 3-tert-butyl-N-[(5S)-2-{2-[1-(propan-2-yl)-1H-pyrazol-4-yl]-1H-imidazo[4,5-b]pyridin-7-yl}-6,7,8,9-tetrahydro-5H-benzo[7]annulen-5-yl]-1,2,4-oxadiazole-5-carboxamide], the figures for the IC50 at Btk [1], at Btk [2] and on full-length human BTK were 0.01 to 0.1 µM, 0.01 to 0.1 µM and 0.001 to 0.01 µM, respectively.
As for `Cc1nn(C)c(C)c1-c1nc2c(-c3ccc4c(c3)CCCC[C@H]4NC(=O)c3nc(C4(C)CC4)no3)ccnc2[nH]1` [Compound 123, 3-(1-Methyl-cyclopropyl)-[1,2,4]oxadiazole-5-carboxylic acid {(R)-2-[2-(1,3,5-trimethyl-1H-pyrazol-4-yl)-3H-imidazo[4,5-b]pyridin-7-yl]-6,7,8,9-tetrahydro-5H-benzocyclohepten-5-yl}-amide], the IC50 is 0.001 to 0.01 µM against Btk [1], 0.001 to 0.01 µM at Btk [2] and below 0.001 µM at full-length human BTK.
For `Cc1c(-c2nc3c(-c4ccc5c(c4)CCC[C@@H]5NC(=O)c4noc(C(C)(C)C)n4)ccnc3[nH]2)cnn1C(C)C` [Compound 165, 5-tert-Butyl-[1,2,4]oxadiazole-3-carboxylic acid {(S)-6-[2-(1-isopropyl-5-methyl-1H-pyrazol-4-yl)-3H-imidazo[4,5-b]pyridin-7-yl]-1,2,3,4-tetrahydro-naphthalen-1-yl}-amide], the IC50 at Btk [1] was 0.001 to 0.01 µM; at Btk [2] it was 0.01 to 0.1 µM; on full-length human BTK it was below 0.001 µM.
For `Cc1c(-c2nc3c(-c4ccc5c(c4)CCCCC5NC(=O)c4nc(C(C)(C)C)no4)ccnc3[nH]2)cnn1C(C)C` (stereo not drawn) [Compound 136, 3-tert-Butyl-[1,2,4]oxadiazole-5-carboxylic acid {2-[2-(1-isopropyl-5-methyl-1H-pyrazol-4-yl)-3H-imidazo[4,5-b]pyridin-7-yl]-6,7,8,9-tetrahydro-5H-benzocyclohepten-5-yl}-amide], the values for the IC50 on Btk [1], at Btk [2] and on full-length human BTK were 0.001 to 0.01 µM, 0.01 to 0.1 µM and below 0.001 µM, respectively.
Turning to `Cc1nn(C)c(C)c1-c1nc2c(-c3ccc4c(c3)CCCC[C@H]4NC(=O)c3nnc(C(C)(C)C)o3)ccnc2[nH]1` [Compound 121, 5-tert-Butyl-[1,3,4]oxadiazole-2-carboxylic acid {(R)-2-[2-(1,3,5-trimethyl-1H-pyrazol-4-yl)-3H-imidazo[4,5-b]pyridin-7-yl]-6,7,8,9-tetrahydro-5H-benzocyclohepten-5-yl}-amide], the IC50 at Btk [1] was 0.001 to 0.01 µM; at Btk [2], 0.01 to 0.1 µM; on full-length human BTK, below 0.001 µM.
The like results for `CCc1cc(-c2nc3c(-c4ccc5c(c4)CCCCC5NC(=O)c4nnc(C(C)(C)C)o4)ccnc3[nH]2)nn1C` (stereo not drawn) [Compound 131, 5-tert-Butyl-[1,3,4]oxadiazole-2-carboxylic acid {2-[2-(5-ethyl-1-methyl-1H-pyrazol-3-yl)-3H-imidazo[4,5-b]pyridin-7-yl]-6,7,8,9-tetrahydro-5H-benzocyclohepten-5-yl}-amide] were, in that order, 0.001 to 0.01 µM, 0.01 to 0.1 µM and below 0.001 µM.
Taken in the same sequence, the figures for `Cc1c(-c2nc3c(-c4ccc5c(c4)CCCCC5NC(=O)c4nc(C5(C)CC5)no4)ccnc3[nH]2)cnn1C(C)C` (stereo not drawn) [Compound 26, 3-(1-Methyl-cyclopropyl)-[1,2,4]oxadiazole-5-carboxylic acid {2-[2-(1-isopropyl-5-methyl-1H-pyrazol-4-yl)-3H-imidazo[4,5-b]pyridin-7-yl]-6,7,8,9-tetrahydro-5H-benzocyclohepten-5-yl}-amide] were 0.001 to 0.01 µM, 0.01 to 0.1 µM and 0.001 to 0.01 µM.
Taken in the same sequence, the figures for `Cc1c(-c2nc3c(-c4ccc5c(c4)CCCC5NC(=O)c4nc(C(C)(C)C)no4)ccnc3[nH]2)cnn1C` (stereo not drawn) [Compound 111, 3-tert-Butyl-[1,2,4]oxadiazole-5-carboxylic acid {6-[2-(1,5-dimethyl-1H-pyrazol-4-yl)-3H-imidazo[4,5-b]pyridin-7-yl]-1,2,3,4-tetrahydro-naphthalen-1-yl}-amide] were 0.001 to 0.01 µM, above 0.1 µM and 0.001 to 0.01 µM.
Take `Cc1nn(C(C)C)cc1-c1nc2nccc(-c3ccc4c(c3)CCCC[C@H]4NC(=O)c3nnc(C(C)(C)C)o3)c2[nH]1` [Compound 78, 5-tert-butyl-N-[(5R)-2-{2-[3-methyl-1-(propan-2-yl)-1H-pyrazol-4-yl]-1H-imidazo[4,5-b]pyridin-7-yl}-6,7,8,9-tetrahydro-5H-benzo[7]annulen-5-yl]-1,3,4-oxadiazole-2-carboxamide]: the IC50 on Btk [1] is 0.001 to 0.01 µM; at Btk [2], 0.001 to 0.01 µM; on full-length human BTK, below 0.001 µM.
Take `Cc1cc(-c2nc3c(-c4ccc5c(c4)CCCC[C@H]5NC(=O)c4nnc(C(C)(C)C)o4)ccnc3[nH]2)nn1C` [Compound 153, 5-tert-Butyl-[1,3,4]oxadiazole-2-carboxylic acid {(R)-2-[2-(1,5-dimethyl-1H-pyrazol-3-yl)-3H-imidazo[4,5-b]pyridin-7-yl]-6,7,8,9-tetrahydro-5H-benzocyclohepten-5-yl}-amide]: the IC50 is 0.001 to 0.01 µM against Btk [1], 0.001 to 0.01 µM on Btk [2] and below 0.001 µM on full-length human BTK.
Regarding `Cc1nn(C(C)C)cc1-c1nc2c(-c3ccc4c(c3)CCCCC4NC(=O)c3nnc(C(C)(C)C)o3)ccnc2[nH]1` (stereo not drawn) [Compound 118, 5-tert-Butyl-[1,3,4]oxadiazole-2-carboxylic acid {2-[2-(1-isopropyl-3-methyl-1H-pyrazol-4-yl)-3H-imidazo[4,5-b]pyridin-7-yl]-6,7,8,9-tetrahydro-5H-benzocyclohepten-5-yl}-amide], the IC50 against Btk [1] is 0.001 to 0.01 µM; on Btk [2], 0.001 to 0.01 µM; at full-length human BTK, below 0.001 µM.
`Cc1c(-c2nc3c(-c4ccc5c(c4)CCCC5NC(=O)c4nc(C5(C)CC5)no4)ccnc3[nH]2)cnn1C1CCOCC1` (stereo not drawn) [Compound 148, 3-(1-Methyl-cyclopropyl)-[1,2,4]oxadiazole-5-carboxylic acid (6-{2-[5-methyl-1-(tetrahydro-pyran-4-yl)-1H-pyrazol-4-yl]-3H-imidazo[4,5-b]pyridin-7-yl}-1,2,3,4-tetrahydro-naphthalen-1-yl)-amide]: the values for the half-inhibitory concentration (IC50) against Btk [1], on Btk [2] and on full-length human BTK were 0.01 to 0.1 µM, 0.01 to 0.1 µM and below 0.001 µM, respectively.
Regarding `Cc1c(-c2nc3c(-c4ccc5c(c4)CCCC5NC(=O)c4noc(C(C)(C)C)n4)ccnc3[nH]2)cnn1C1CCOCC1` (stereo not drawn) [Compound 150, 5-tert-Butyl-[1,2,4]oxadiazole-3-carboxylic acid (6-{2-[5-methyl-1-(tetrahydro-pyran-4-yl)-1H-pyrazol-4-yl]-3H-imidazo[4,5-b]pyridin-7-yl}-1,2,3,4-tetrahydro-naphthalen-1-yl)-amide], the IC50 was 0.001 to 0.01 µM against Btk [1], 0.001 to 0.01 µM at Btk [2] and below 0.001 µM on full-length human BTK.
Turning to `CCc1cc(-c2nc3c(-c4ccc5c(c4)CCCC5NC(=O)c4nc(C(C)(C)C)no4)ccnc3[nH]2)nn1C` (stereo not drawn) [Compound 108, 3-tert-Butyl-[1,2,4]oxadiazole-5-carboxylic acid {6-[2-(5-ethyl-1-methyl-1H-pyrazol-3-yl)-3H-imidazo[4,5-b]pyridin-7-yl]-1,2,3,4-tetrahydro-naphthalen-1-yl}-amide], the values for the IC50 at Btk [1], on Btk [2] and at full-length human BTK were 0.01 to 0.1 µM, 0.01 to 0.1 µM and below 0.001 µM, respectively.
For the molecule `Cc1c(-c2nc3c(-c4ccc5c(c4)CCCC5NC(=O)c4noc(C(C)(C)C)n4)ccnc3[nH]2)cnn1C(C)C` (stereo not drawn) [Compound 149, 5-tert-Butyl-[1,2,4]oxadiazole-3-carboxylic acid {6-[2-(1-isopropyl-5-methyl-1H-pyrazol-4-yl)-3H-imidazo[4,5-b]pyridin-7-yl]-1,2,3,4-tetrahydro-naphthalen-1-yl}-amide], the IC50 is 0.001 to 0.01 µM against Btk [1], 0.01 to 0.1 µM at Btk [2] and below 0.001 µM at full-length human BTK.
Taken in the same sequence, the figures for `Cc1nn(C)c(C)c1-c1nc2c(-c3ccc4c(c3)CCCC[C@H]4NC(=O)c3noc(C4(C)CC4)n3)ccnc2[nH]1` [Compound 12, 5-(1-Methyl-cyclopropyl)-[1,2,4]oxadiazole-3-carboxylic acid {(R)-2-[2-(1,3,5-trimethyl-1H-pyrazol-4-yl)-3H-imidazo[4,5-b]pyridin-7-yl]-6,7,8,9-tetrahydro-5H-benzocyclohepten-5-yl}-amide] were 0.001 to 0.01 µM, 0.001 to 0.01 µM and below 0.001 µM.
The like results for `CCn1nc(C)c(-c2nc3c(-c4ccc5c(c4)CCCCC5NC(=O)c4nc(C5(C)CC5)no4)ccnc3[nH]2)c1C` (stereo not drawn) [Compound 135, 3-(1-Methyl-cyclopropyl)-[1,2,4]oxadiazole-5-carboxylic acid {2-[2-(1-ethyl-3,5-dimethyl-1H-pyrazol-4-yl)-3H-imidazo[4,5-b]pyridin-7-yl]-6,7,8,9-tetrahydro-5H-benzocyclohepten-5-yl}-amide] were, in that order, 0.001 to 0.01 µM, 0.001 to 0.01 µM and below 0.001 µM.
Taken in the same sequence, the figures for `Cc1nn(C)c(C)c1-c1nc2c(-c3ccc4c(c3)CCCCC4NC(=O)c3nc(C4(C)CC4)no3)ccnc2[nH]1` (stereo not drawn) [Compound 143, 3-(1-Methyl-cyclopropyl)-[1,2,4]oxadiazole-5-carboxylic acid {2-[2-(1,3,5-trimethyl-1H-pyrazol-4-yl)-3H-imidazo[4,5-b]pyridin-7-yl]-6,7,8,9-tetrahydro-5H-benzocyclohepten-5-yl}-amide] were 0.001 to 0.01 µM, 0.01 to 0.1 µM and below 0.001 µM.
